Measured values from ChEMBL document CHEMBL1201862, “PubChem BioAssay data set” (2004).
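Each compound was tested at five concentrations against cells in 96-well plates for 48 hours. At the GI50, growth is halved.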 Activity calls are given as the source filed them. No stated cut-off is given here; in the data, active = GI50 up to about 1.1 µM and inactive = higher.

Legend:
Experiment in all cases: DTP human tumour cell line panel, 48 h
786-0 = test system: 786-0
A498 = test system: A498
ACHN = test system: ACHN
CAKI-1 = test system: CAKI-1
CCRF-CEM = test system: CCRF-CEM
COLO 205 = test system: COLO 205
EKVX = test system: EKVX
HCC 2998 = test system: HCC 2998
HCT-116 = test system: HCT-116
HCT-15 = test system: HCT-15
HL-60 = test system: HL-60
HOP-62 = test system: HOP-62
HOP-92 = test system: HOP-92
HT-29 = test system: HT-29
Hs-578T = test system: Hs-578T
IGROV-1 = test system: IGROV-1
K562 = test system: K562
KM12 = test system: KM12
LOX IMVI = test system: LOX IMVI
M14 = test system: M14
MCF7 = test system: MCF7
MDA-MB-231 = test system: MDA-MB-231
MDA-MB-435 = test system: MDA-MB-435
MDA-N = test system: MDA-N
MOLT-4 = test system: MOLT-4
NCI-H226 = test system: NCI-H226
NCI-H23 = test system: NCI-H23
NCI-H460 = test system: NCI-H460
NCI-H522 = test system: NCI-H522
NCI/ADR-RES = test system: NCI/ADR-RES
OVCAR-3 = test system: OVCAR-3
OVCAR-4 = test system: OVCAR-4
OVCAR-5 = test system: OVCAR-5
OVCAR-8 = test system: OVCAR-8
PC-3 = test system: PC-3
RPMI-8226 = test system: RPMI-8226
SF-268 = test system: SF-268
SF-295 = test system: SF-295
SF-539 = test system: SF-539
SK-MEL-28 = test system: SK-MEL-28
SK-MEL-2 = test system: SK-MEL-2
SK-MEL-5 = test system: SK-MEL-5
SK-OV-3 = test system: SK-OV-3
SN12C = test system: SN12C
SNB-19 = test system: SNB-19
SNB-75 = test system: SNB-75
SR = test system: SR
SW-620 = test system: SW-620
T47D = test system: T47D
TK-10 = test system: TK-10
U-251 = test system: U-251
UO-31 = test system: UO-31
A549 = test system: A549
DU-145 = test system: DU-145
Malme-3M = test system: Malme-3M
RXF 393 = test system: RXF 393
UACC-257 = test system: UACC-257
UACC-62 = test system: UACC-62

## O=S(=O)(N=[Se](=O)(c1ccccc1)c1ccccc1)c1ccccc1
786-0
  GI50: > 100 µM (inactive)
A498
  GI50: > 100 µM (inactive)
ACHN
  GI50: > 100 µM (inactive)
CAKI-1
  GI50: > 100 µM (inactive)
CCRF-CEM
  GI50: > 100 µM (inactive)
COLO 205
  GI50: > 100 µM (inactive)
EKVX
  GI50: > 100 µM (inactive)
HCC 2998
  GI50: > 100 µM (inactive)
HCT-116
  GI50: > 100 µM (inactive)
HCT-15
  GI50: > 100 µM
HL-60
  GI50: 25.1 µM (inactive)
HOP-62
  GI50: > 100 µM (inactive)
HOP-92
  GI50: > 100 µM (inactive)
HT-29
  GI50: > 100 µM (inactive)
Hs-578T
  GI50: > 100 µM (inactive)
IGROV-1
  GI50: 28 µM (inactive)
K562
  GI50: > 100 µM (inactive)
KM12
  GI50: > 100 µM (inactive)
LOX IMVI
  GI50: > 100 µM (inactive)
M14
  GI50: > 100 µM (inactive)
MCF7
  GI50: 88.3 µM (inactive)
MDA-MB-231
  GI50: > 100 µM (inactive)
MDA-MB-435
  GI50: > 100 µM (inactive)
MDA-N
  GI50: > 100 µM (inactive)
MOLT-4
  GI50: > 100 µM (inactive)
NCI-H226
  GI50: > 100 µM (inactive)
NCI-H23
  GI50: > 100 µM (inactive)
NCI-H460
  GI50: > 100 µM (inactive)
NCI-H522
  GI50: > 100 µM (inactive)
NCI/ADR-RES
  GI50: > 100 µM (inactive)
OVCAR-3
  GI50: > 100 µM (inactive)
OVCAR-4
  GI50: > 100 µM (inactive)
OVCAR-5
  GI50: > 100 µM (inactive)
OVCAR-8
  GI50: > 100 µM (inactive)
PC-3
  GI50: > 100 µM (inactive)
RPMI-8226
  GI50: > 100 µM (inactive)
SF-268
  GI50: > 100 µM (inactive)
SF-295
  GI50: > 100 µM (inactive)
SF-539
  GI50: > 100 µM (inactive)
SK-MEL-28
  GI50: > 100 µM (inactive)
SK-MEL-2
  GI50: 48.3 µM (inactive)
SK-MEL-5
  GI50: > 100 µM (inactive)
SK-OV-3
  GI50: > 100 µM (inactive)
SN12C
  GI50: > 100 µM (inactive)
SNB-19
  GI50: 60 µM (inactive)
SNB-75
  GI50: > 100 µM (inactive)
SR
  GI50: > 100 µM (inactive)
SW-620
  GI50: > 100 µM (inactive)
T47D
  GI50: > 100 µM (inactive)
TK-10
  GI50: > 100 µM (inactive)
U-251
  GI50: > 100 µM (inactive)
UO-31
  GI50: 58.1 µM (inactive)

## COc1cc(C(=O)N2CCN(C(=O)c3cc(OC)c(OC)c(OC)c3)C2=S)cc(OC)c1OC
RPMI-8226
  GI50: 3.66 µM (inactive)
UO-31
  GI50: 0.234 µM (active)

## CC1=C(/C=C/C(C)=C/C=C/C(C)=C/CO)C(C)(C)CCC1 [RETINOL]
786-0
  GI50: 17.2 µM (inactive)
A498
  GI50: 18.3 µM (inactive)
A549
  GI50: 19.1 µM (inactive)
ACHN
  GI50: 29.4 µM (inactive)
CAKI-1
  GI50: 42 µM (inactive)
CCRF-CEM
  GI50: 22.3 µM (inactive)
COLO 205
  GI50: 19.1 µM (inactive)
DU-145
  GI50: 38.3 µM (inactive)
EKVX
  GI50: 27.1 µM (inactive)
HCC 2998
  GI50: 17.3 µM (inactive)
HCT-15
  GI50: 30.6 µM
HL-60
  GI50: 23.4 µM (inactive)
HOP-62
  GI50: 22.1 µM (inactive)
HT-29
  GI50: 27.2 µM (inactive)
IGROV-1
  GI50: 29.2 µM (inactive)
K562
  GI50: 26.5 µM (inactive)
KM12
  GI50: 36.1 µM (inactive)
LOX IMVI
  GI50: 24.6 µM (inactive)
M14
  GI50: 16.8 µM (inactive)
MDA-MB-231
  GI50: 29 µM (inactive)
MDA-MB-435
  GI50: 22.1 µM (inactive)
MDA-N
  GI50: 36.5 µM (inactive)
MOLT-4
  GI50: 18 µM (inactive)
Malme-3M
  GI50: 11.1 µM (inactive)
NCI-H226
  GI50: 20.7 µM (inactive)
NCI-H23
  GI50: 21.8 µM (inactive)
NCI-H460
  GI50: 30.5 µM (inactive)
NCI-H522
  GI50: 25.5 µM (inactive)
NCI/ADR-RES
  GI50: 19.5 µM (inactive)
OVCAR-3
  GI50: 14.3 µM (inactive)
OVCAR-4
  GI50: 37.7 µM (inactive)
OVCAR-5
  GI50: 24.9 µM (inactive)
PC-3
  GI50: 38.9 µM (inactive)
RXF 393
  GI50: 12.4 µM (inactive)
SF-268
  GI50: 28.6 µM (inactive)
SF-295
  GI50: 24.2 µM (inactive)
SF-539
  GI50: 14.1 µM (inactive)
SK-MEL-28
  GI50: 25.5 µM (inactive)
SK-MEL-2
  GI50: 20.7 µM (inactive)
SK-MEL-5
  GI50: 17.1 µM (inactive)
SK-OV-3
  GI50: 35.2 µM (inactive)
SN12C
  GI50: 21.7 µM (inactive)
SNB-19
  GI50: 22.1 µM (inactive)
SNB-75
  GI50: 0.0279 µM (active)
SR
  GI50: 18.1 µM (inactive)
SW-620
  GI50: 19.4 µM (inactive)
T47D
  GI50: 14.5 µM (inactive)
U-251
  GI50: 21.2 µM (inactive)
UACC-257
  GI50: 27.6 µM (inactive)
UACC-62
  GI50: 19.5 µM (inactive)
UO-31
  GI50: 17.7 µM (inactive)
